Experimental data published in patent publication US20070071794A1, “DRUGS FOR TREATING DIABETES” (priority 2004, published 2007).

Experiments:
[1] = test system: INS-1 cells derived from pancreatic β cells of rats; test: Insulin secretion of INS-1 cells with aspartic acid combined with an insulin secretagogue; type: cell-based; conditions: 5 mM glucose, 2 hours; for insulin secretion rate: n=3, Cond. 1 (no drug) 2.85±0.49; for insulin secretion increase (significance, in words): KRBH buffer, 0.3 μM nateglinide and/or 10 mM aspartic acid, compared to Condition 1 (combination also to Conditions 2, 3)
Protocol: INS-1 cells derived from pancreatic β cells of rats were dispersed in each amount of 2×10^5 cells on a 24-well culture plate, and cultured on RPMI medium for 48 hours. […] Condition 1: KRBH buffer, 5 mM glucose Condition 2: KRBH buffer, 5 mM glucose, 0.3 μM nateglinide Condition 3: […] Condition 4: […]

[2] = test system: INS-1 cells derived from pancreatic β cells of rats; test: Effect of improving insulin secretion defects in INS-1 cells cultured under high glucose; type: cell-based; conditions: for Index of insulin secretion improvement: 25 mM glucose 28 h, then 11.1 mM glucose + amino acid at 10 times RPMI concentration 19 h, secretion in 16.7 mM glucose 2 h, 0 = defective cond., 1 = ordinary cond.; for improvement in insulin secretion defects (significance): secretion defective + amino acid condition, p<0.05
Text: INS-1 cells derived from pancreatic β cells of rats were dispersed in each amount of 2×10^5 cells on a 24-well culture plate, then divided into three groups and cultured under the following conditions. That is:
First Group: Culture on RPMI medium (Non-patent Literature 4) under the ordinary condition.
Second Group: Culture under the secretion defective condition by culture under the high glucose concentration. That is, the glucose concentration was increased under the culture conditions of the first group.
Third Group: Under the culture condition of the second group, culture was conducted so that the end concentration of aspartic acid, cystine, serine, asparagine, isoleucine, histidine, hydroxyproline, glutamic acid or valine in the medium became 10 times as high as the concentration thereof in the RPMI medium.
First Group: ordinary condition
• cultured in 11.1 mM glucose for 28 hours, • cultured in 11.1 mM glucose for 19 hours Second Group: secretion defective condition • cultured in 25 mM glucose for 28 hours, • cultured in 11.1 mM glucose for 19 hours Third Group: secretion defective+amino acid condition • cultured in 25 mM glucose for 28 hours,
cultured in 11.1 mM glucose+amino acids for 19 hours
Those cultured cells were further cultured for 1 hour in KRBH buffer (Non-patent Literature 5), and cultured for 2 hours in KRBH buffer containing 16.7 mM glucose. Then, insulin secretion rate was determined. Under the secretion defective condition of the second group, the insulin secretion rate of […] lowered to about 60% of that under the ordinary condition. The effect of improving insulin secretion defects of amino acids was calculated by the following index. Index of insulin secretion improvement=((insulin secretion of the third group)−(insulin secretion of the second group))/((insulin secretion of the first group)−(insulin secretion of the second group))
(Reference: The index of insulin secretion improvement becomes 0 when the insulin secretion in administration of amino acids is same as that in the secretion defective condition, and it becomes 1 when the insulin secretion in administration of amino acids is same as that in the ordinary condition.)

GK rats = test: Glucose tolerance test in GK rats fed aspartic acid (blood glucose ΔAUC, insulinogenic index); type: in vivo; conditions: for ΔAUC (blood glucose, glucose tolerance test): eighth week, oral 1 g/kg glucose after 5 hour fasting, CON group 230
Protocol: Male GK rats (7 weeks old) were fed in the following groups.
CON Group: 5 GK rats Controlled food was administered.
3AS Group: 5 GK rats Food with 3% aspartic acid was administered.
6AS Group: 5 GK rats Food with 6% aspartic acid was administered.
In the eighth week of administration, the glucose tolerance test (oral administration of 1 g/kg of glucose) was conducted to the rats after 5 hour fasting, and their blood glucose and insulin levels were determined over time.
Insulinogenic index was determined from the results of the glucose tolerance test after eight week administration in Example 2. Insulinogenic index is the value wherein the insulin rate secreted in 15 minutes after adding glucose was divided by the glucose level that increased in 15 minutes after adding glucose.

Compound | Index of insulin secretion improvement [2] | improvement in insulin secretion defects (significance) [2] | other results
N[C@@H](CC(=O)O)C(=O)O [Asp, L-aspartic acid] | 1.75 | significantly improved | insulin secretion rate ([1]; Condition 3: KRBH buffer, 10 mM aspartic acid): 3.69 ± 0.87 ng/mL; insulin secretion increase (significance, in words) [1]: significant insulin secretion increase was not seen; ΔAUC (blood glucose, glucose tolerance test) (GK rats; 3AS group: food with 3% aspartic acid): 190 mg·h/dL; ΔAUC (blood glucose, glucose tolerance test) (GK rats; 6AS group: food with 6% aspartic acid): 140 mg·h/dL; Insulinogenic index (result in words) (GK rats; food with 3% or 6% aspartic acid, eight weeks, insulin secreted / glucose increase in 15 minutes after glucose): improved corresponding to the administered dose; glucose tolerance (result in words) (GK rats; food with 6% aspartic acid, after eight week administration): improvement in the glucose tolerance was seen
N[C@@H](CO)C(=O)O [Ser, serine] | 0.97 | significantly improved | 
CC(C)[C@H](N)C(=O)O [Val, valine] | 0.35 | significantly improved | 
N=C(N)NCCC[C@H](N)C(=O)O [arginine, reference compound] |  | significant improvement in insulin secretion defects was not confirmed | 
O=C(O)[C@@H]1C[C@@H](O)CN1 [Hydroxyproline, hydroxyproline] | 0.64 | significantly improved | 
N[C@@H](CSSC[C@H](N)C(=O)O)C(=O)O [Cystine, cystine] | 1.08 | significantly improved | 
N[C@@H](Cc1c[nH]cn1)C(=O)O [His, histidine] | 0.67 | significantly improved | 
N[C@@H](CCC(=O)O)C(=O)O [Glu, glutamic acid] | 0.57 | significantly improved | 
NCCCC[C@H](N)C(=O)O [lysine, reference compound] |  | significant improvement in insulin secretion defects was not confirmed | 
CC(C)C[C@H](N)C(=O)O [leucine, reference compound] |  | significant improvement in insulin secretion defects was not confirmed | 
CC(C)[C@H]1CC[C@H](C(=O)N[C@H](Cc2ccccc2)C(=O)O)CC1 [nateglinide, reference compound] |  |  | insulin secretion rate ([1]; Condition 2: KRBH buffer, 0.3 μM nateglinide): 4.34 ± 1.19 ng/mL; insulin secretion increase (significance, in words) [1]: significant insulin secretion increase was not seen
NC(=O)C[C@H](N)C(=O)O [Asn, asparagine] | 0.87 | significantly improved | 
CC[C@H](C)[C@H](N)C(=O)O [Ile, isoleucine] | 0.84 | significantly improved | 
